In assay [1] the target is T1, Serine/threonine-protein kinase 3 (Homo sapiens, UniProt Q13188).
T1 sequence (Q13188 whole entry): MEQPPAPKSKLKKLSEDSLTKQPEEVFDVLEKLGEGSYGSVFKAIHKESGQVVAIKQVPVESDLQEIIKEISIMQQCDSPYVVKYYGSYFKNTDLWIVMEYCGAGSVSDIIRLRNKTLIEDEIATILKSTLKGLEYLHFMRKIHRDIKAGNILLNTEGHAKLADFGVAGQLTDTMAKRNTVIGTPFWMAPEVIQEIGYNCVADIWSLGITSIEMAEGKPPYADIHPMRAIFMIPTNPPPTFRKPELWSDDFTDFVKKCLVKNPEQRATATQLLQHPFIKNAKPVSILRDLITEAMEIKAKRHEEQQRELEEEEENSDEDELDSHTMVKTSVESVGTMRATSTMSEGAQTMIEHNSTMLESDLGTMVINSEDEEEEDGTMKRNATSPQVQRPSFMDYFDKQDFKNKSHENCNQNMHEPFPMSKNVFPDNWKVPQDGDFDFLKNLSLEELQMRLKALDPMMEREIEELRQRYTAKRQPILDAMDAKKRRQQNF

The target in assay [2] is Tyrosine-protein kinase BTK (Homo sapiens, UniProt Q06187).
Assay [3] addresses Cyclin-dependent kinase 13 (Homo sapiens, UniProt Q14004).
For assay [4], the target named is T2, RNA cytidine acetyltransferase (Homo sapiens, UniProt Q9H0A0).
T2 sequence (Q9H0A0 whole entry): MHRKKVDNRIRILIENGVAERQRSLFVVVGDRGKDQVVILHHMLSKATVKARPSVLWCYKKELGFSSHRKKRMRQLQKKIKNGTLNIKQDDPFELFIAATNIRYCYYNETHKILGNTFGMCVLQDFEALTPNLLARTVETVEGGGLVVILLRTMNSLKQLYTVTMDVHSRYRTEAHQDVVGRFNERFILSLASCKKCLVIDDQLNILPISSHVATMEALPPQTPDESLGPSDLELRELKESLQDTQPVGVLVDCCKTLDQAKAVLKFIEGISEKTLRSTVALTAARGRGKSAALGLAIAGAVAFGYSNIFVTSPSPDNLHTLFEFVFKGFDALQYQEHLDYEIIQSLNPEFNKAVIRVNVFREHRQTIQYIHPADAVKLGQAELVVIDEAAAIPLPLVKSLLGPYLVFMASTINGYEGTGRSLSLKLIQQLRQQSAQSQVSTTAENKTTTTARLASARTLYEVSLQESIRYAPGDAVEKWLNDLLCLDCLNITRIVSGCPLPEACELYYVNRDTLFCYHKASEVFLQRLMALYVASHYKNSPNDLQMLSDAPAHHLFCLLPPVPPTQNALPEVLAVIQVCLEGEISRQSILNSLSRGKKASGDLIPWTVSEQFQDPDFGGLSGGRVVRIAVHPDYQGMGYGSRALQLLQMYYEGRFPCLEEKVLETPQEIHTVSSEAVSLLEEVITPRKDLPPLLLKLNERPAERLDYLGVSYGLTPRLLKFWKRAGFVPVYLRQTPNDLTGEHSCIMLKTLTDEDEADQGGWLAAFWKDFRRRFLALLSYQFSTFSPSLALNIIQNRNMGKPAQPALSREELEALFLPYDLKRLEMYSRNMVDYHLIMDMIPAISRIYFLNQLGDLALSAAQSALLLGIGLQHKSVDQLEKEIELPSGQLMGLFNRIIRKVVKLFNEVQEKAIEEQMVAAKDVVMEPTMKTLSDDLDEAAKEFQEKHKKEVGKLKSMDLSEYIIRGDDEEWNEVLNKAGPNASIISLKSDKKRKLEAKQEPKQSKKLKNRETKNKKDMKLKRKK

Assay [5] concerns the target T3, Serine/threonine-protein kinase Chk1 (Homo sapiens, UniProt O14757).
T3 sequence (O14757 whole entry): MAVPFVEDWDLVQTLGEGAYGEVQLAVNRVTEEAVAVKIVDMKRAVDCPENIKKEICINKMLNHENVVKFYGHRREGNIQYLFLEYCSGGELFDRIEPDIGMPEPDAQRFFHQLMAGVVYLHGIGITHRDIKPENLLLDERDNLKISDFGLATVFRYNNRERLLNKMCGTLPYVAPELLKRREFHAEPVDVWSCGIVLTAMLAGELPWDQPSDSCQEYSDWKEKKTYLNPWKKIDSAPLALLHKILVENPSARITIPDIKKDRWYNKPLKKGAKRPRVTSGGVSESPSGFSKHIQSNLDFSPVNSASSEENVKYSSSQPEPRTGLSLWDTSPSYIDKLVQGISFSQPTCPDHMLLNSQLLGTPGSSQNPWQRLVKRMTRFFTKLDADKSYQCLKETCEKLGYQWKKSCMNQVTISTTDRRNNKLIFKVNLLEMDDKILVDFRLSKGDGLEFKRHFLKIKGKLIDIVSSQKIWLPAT

For a further assay, the target named is Activin receptor type-2B (Homo sapiens, UniProt Q13705).
The target in assay [6] is DNA topoisomerase 2-alpha (Homo sapiens, UniProt P11388).
The target of assay [7] is Protein kinase C beta type (Homo sapiens, UniProt P05771).
The target of another assay is Ephrin type-A receptor 2 (Homo sapiens, UniProt P29317).

Our source for the Kd values is ChEMBL document CHEMBL3991601, “The target landscape of clinical kinase drugs” (Science, 2017).

Molecules are shown by their SMILES. Calls of active or inactive are those of the source. For most assays here, no stated cut-off is given here; in the data, actives have a measured Kd and inactives only a lower limit.

Cyclin-dependent kinase 13, sequence (Q14004 whole entry): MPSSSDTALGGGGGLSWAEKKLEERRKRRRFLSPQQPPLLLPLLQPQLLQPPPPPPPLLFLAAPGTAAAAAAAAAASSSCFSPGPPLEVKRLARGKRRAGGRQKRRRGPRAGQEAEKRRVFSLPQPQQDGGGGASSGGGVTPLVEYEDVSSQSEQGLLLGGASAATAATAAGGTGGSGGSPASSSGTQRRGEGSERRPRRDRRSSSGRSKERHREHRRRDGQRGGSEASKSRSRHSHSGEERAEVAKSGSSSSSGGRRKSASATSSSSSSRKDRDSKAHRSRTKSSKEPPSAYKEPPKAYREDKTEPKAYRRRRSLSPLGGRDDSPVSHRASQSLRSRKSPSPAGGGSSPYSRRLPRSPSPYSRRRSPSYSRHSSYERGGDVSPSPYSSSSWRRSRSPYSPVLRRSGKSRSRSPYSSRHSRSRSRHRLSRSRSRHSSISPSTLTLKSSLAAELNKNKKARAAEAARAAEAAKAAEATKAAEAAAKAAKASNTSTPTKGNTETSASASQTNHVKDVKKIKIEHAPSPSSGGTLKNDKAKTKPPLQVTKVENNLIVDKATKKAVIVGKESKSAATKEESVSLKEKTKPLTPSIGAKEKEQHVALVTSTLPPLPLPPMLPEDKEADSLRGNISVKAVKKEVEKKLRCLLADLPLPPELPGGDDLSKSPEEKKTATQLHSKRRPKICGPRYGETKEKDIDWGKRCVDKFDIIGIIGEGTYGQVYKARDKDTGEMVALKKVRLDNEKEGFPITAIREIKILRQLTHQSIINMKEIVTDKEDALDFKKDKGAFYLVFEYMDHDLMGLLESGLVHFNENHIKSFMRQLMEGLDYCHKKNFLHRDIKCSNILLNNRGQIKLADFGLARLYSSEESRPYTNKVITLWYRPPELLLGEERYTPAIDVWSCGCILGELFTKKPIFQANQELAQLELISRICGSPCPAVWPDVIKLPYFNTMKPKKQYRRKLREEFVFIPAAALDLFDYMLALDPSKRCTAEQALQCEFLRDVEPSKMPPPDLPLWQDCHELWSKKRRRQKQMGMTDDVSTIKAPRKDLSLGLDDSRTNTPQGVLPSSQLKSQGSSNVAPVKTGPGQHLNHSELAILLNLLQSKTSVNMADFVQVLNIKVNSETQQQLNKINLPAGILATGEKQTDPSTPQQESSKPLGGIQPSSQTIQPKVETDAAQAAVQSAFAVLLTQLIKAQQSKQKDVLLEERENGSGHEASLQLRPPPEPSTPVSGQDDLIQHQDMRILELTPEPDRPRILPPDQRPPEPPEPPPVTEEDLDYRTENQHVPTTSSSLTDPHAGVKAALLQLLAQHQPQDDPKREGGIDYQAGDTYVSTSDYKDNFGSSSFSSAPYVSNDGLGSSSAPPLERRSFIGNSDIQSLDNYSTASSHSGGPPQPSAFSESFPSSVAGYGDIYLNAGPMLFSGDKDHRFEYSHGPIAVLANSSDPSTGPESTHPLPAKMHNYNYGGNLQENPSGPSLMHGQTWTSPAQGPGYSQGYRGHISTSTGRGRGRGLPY
DNA topoisomerase 2-alpha, sequence (P11388 whole entry): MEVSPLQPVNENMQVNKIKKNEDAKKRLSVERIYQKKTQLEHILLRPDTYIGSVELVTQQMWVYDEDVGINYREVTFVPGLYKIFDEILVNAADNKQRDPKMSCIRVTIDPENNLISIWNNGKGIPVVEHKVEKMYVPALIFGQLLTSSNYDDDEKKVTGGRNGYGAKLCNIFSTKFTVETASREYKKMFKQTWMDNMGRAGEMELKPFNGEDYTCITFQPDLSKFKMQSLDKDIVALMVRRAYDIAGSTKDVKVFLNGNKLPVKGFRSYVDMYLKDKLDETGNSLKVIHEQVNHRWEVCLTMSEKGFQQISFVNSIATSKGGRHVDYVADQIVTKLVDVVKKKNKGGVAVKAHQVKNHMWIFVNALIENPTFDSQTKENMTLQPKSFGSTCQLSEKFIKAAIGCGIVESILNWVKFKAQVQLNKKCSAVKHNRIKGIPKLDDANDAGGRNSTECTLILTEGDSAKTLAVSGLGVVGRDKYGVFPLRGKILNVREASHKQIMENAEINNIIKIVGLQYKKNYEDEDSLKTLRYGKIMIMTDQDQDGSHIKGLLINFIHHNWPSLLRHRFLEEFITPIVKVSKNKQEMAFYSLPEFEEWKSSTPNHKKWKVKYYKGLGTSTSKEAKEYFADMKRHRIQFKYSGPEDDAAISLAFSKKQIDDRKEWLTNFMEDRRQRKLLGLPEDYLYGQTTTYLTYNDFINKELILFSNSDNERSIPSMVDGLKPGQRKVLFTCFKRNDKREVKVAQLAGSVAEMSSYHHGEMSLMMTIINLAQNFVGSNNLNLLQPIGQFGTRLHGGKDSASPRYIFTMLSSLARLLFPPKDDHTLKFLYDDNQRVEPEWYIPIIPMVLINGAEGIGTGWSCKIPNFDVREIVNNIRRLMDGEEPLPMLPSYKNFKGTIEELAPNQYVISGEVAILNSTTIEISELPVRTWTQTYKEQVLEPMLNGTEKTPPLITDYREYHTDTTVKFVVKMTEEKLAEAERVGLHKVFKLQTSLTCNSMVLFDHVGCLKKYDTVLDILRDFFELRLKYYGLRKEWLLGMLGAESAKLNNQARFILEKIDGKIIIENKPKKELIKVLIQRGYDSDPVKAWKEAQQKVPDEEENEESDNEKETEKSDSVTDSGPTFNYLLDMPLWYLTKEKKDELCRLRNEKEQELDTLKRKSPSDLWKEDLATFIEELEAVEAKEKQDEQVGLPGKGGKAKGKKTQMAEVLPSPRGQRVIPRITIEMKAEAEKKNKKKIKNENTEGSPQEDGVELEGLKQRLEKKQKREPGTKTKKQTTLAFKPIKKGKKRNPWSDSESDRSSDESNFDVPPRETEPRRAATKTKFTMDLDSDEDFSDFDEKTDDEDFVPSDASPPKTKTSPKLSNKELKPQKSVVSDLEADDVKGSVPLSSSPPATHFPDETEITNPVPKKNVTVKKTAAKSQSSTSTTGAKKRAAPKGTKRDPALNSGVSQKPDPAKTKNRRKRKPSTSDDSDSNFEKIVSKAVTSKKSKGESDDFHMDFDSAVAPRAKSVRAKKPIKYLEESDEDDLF
Ephrin type-A receptor 2, sequence (P29317 whole entry): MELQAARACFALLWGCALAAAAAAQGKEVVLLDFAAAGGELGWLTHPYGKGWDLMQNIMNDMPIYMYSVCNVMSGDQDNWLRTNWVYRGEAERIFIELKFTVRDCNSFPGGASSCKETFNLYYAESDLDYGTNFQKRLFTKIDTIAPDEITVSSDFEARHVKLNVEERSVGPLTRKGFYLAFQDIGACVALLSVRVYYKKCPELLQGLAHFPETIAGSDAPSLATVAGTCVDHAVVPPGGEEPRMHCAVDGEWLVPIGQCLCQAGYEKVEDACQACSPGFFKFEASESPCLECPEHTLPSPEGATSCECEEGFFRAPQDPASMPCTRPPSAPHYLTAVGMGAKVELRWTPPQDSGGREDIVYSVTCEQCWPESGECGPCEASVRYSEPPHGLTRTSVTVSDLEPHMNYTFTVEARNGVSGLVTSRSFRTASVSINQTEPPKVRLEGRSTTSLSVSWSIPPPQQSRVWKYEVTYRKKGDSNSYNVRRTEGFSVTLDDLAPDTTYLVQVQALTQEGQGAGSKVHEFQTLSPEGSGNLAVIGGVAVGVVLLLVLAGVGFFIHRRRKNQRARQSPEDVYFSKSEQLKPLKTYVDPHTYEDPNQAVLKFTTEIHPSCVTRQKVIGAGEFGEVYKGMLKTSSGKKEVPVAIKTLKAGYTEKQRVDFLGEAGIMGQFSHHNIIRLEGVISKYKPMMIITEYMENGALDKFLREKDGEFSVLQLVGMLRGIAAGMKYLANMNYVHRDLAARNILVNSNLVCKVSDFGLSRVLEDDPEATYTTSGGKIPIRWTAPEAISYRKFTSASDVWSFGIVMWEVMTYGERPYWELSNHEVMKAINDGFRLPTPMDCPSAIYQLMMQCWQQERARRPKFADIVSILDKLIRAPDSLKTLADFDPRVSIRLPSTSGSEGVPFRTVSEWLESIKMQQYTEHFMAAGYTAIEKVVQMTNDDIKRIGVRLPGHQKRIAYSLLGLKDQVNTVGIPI
Tyrosine-protein kinase BTK, sequence (Q06187 whole entry): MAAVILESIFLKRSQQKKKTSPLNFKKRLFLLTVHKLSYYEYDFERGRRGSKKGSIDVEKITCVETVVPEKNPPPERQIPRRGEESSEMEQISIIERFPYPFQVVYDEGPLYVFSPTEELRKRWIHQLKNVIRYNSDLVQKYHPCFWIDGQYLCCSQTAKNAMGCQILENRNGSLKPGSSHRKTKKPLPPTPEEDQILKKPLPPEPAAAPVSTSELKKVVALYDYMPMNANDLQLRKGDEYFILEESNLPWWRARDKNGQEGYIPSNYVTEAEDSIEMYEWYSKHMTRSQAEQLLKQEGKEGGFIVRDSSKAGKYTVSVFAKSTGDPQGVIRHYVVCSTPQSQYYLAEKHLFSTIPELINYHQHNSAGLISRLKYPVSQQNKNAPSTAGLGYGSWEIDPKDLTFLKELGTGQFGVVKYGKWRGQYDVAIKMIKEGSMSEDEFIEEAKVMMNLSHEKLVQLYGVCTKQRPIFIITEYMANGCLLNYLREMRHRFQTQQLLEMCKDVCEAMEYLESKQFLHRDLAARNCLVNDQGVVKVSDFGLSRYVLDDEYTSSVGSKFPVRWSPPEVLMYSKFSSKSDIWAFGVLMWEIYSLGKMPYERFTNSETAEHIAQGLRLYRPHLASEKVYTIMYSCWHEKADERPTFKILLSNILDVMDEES

One may read the Kd as a measure of binding affinity in units of concentration. With `CCS(=O)(=O)N1CC(CC#N)(n2cc(-c3ncnc4[nH]ccc34)cn2)C1` [BARICITINIB], the Kd (in assay [1]; in assay [2]; in assay [3]; in assay [4]; in assay [5]; at Activin receptor type-2B) was > 30 µM (inactive) throughout. Moreover, the Kd is > 30 µM (inactive) in assay [6], 26.3 µM (active) in assay [7] and > 30 µM (inactive) at Ephrin type-A receptor 2.
Regarding `CNS(=O)(=O)Nc1nccc(Cc2c(C)c3ccc(Oc4ncccn4)cc3oc2=O)c1F` [AVUTOMETINIB], the Kd (in [1]; in assay [2]; in assay [3]; in assay [4]; in [5]; at Activin receptor type-2B) was > 30 µM (inactive) in each case. Also, the Kd (in [6]; in assay [7]; on Ephrin type-A receptor 2) was > 30 µM (inactive) in each case.
For `COc1ccc(-c2ccc3c(N4CCOC[C@@H]4C)nc(N4CCOC[C@@H]4C)nc3n2)cc1CO` [AZD-8055], the Kd (in [1]; in [2]; in assay [3]; in [4]; in assay [5]; at Activin receptor type-2B) was > 30 µM (inactive) in each case. The Kd (in assay [6]; in [7]; on Ephrin type-A receptor 2) was > 30 µM (inactive) in each case.
In the case of `O=C1NC(=O)/C(=C/c2ccc3nccc(-c4ccncc4)c3c2)S1` [GSK-1059615], the Kd (in assay [1]; in assay [2]; in assay [3]; in assay [4]; in assay [5]; at Activin receptor type-2B) was > 30 µM (inactive) each time. In addition, the Kd (in assay [6]; in [7]; on Ephrin type-A receptor 2) was > 30 µM (inactive) in each case.
On to `C[C@@H](Nc1cc(F)cc(F)c1)c1cc(C(=O)N(C)C)cc2c(=O)cc(N3CCOCC3)oc12` [AZD-8186], for which the Kd (in assay [1]; in assay [2]; in assay [3]; in [4]; in assay [5]; on Activin receptor type-2B) was > 30 µM (inactive) throughout. The Kd (in assay [6]; in assay [7]; on Ephrin type-A receptor 2) was > 30 µM (inactive) throughout.
Turning to `Cc1c(F)cc(C(=O)NC2CC2)cc1-c1ccc(C(=O)NCC(C)(C)C)cn1` [LOSMAPIMOD], the Kd (in assay [1]; in assay [2]; in assay [3]; in [4]; in assay [5]; on Activin receptor type-2B) was > 30 µM (inactive) each time. Also, the Kd (in [6]; in [7]; on Ephrin type-A receptor 2) was > 30 µM (inactive) throughout.
Regarding `COc1cc(CCc2cc(NC(=O)c3ccc(N4C[C@@H](C)N[C@@H](C)C4)cc3)n[nH]2)cc(OC)c1` [AZD-4547], the Kd (in assay [1]; in [2]; in assay [3]; in [4]; in [5]; on Activin receptor type-2B) was > 30 µM (inactive) each time. For the same molecule, the Kd (in assay [6]; in [7]; on Ephrin type-A receptor 2) was > 30 µM (inactive) each time.
Turning to `C=CC(=O)N1CCC(Oc2cc3c(Nc4ccc(Cl)c(Cl)c4F)ncnc3cc2OC)CC1` [POZIOTINIB], the Kd is > 30 µM (inactive) in assay [1]; 0.003 µM (active) in assay [2]; > 30 µM (inactive) in assay [3]; > 30 µM (inactive) in assay [4]; > 30 µM (inactive) in [5]; > 30 µM (inactive) on Activin receptor type-2B. The Kd (in assay [6]; in assay [7]; on Ephrin type-A receptor 2) was > 30 µM (inactive) in each case.
